Source: publication PMC8000227 (Viruses, 2021)
Where “and” joins values, the source holds several entries; their conditions need not be identical. Equal entries are not always repeated.

How the values were obtained:
[1] = molecular target: covalently-crosslinked hexameric CA A14C/E45C/W184A/M185A (CA121) (Human immunodeficiency virus type 1 group M subtype B, UniProt P12493, A146C/E177C/M317A/W316A); test: Thermal shift assay (TSA) on CA hexamer stability; type: binding, HIV-1; details: 20 µM compound, 7.5 µM CA121
HIV-1NL4-3 = test: microbe, parasite or virus in culture; type: cell-based; details: TZM-GFP cells, HIV-1NL4-3 MOI 0.1, 48 h, mean ± SD; for EC50: Human immunodeficiency virus 1, read-out: EC50 (concentration of compound inhibiting HIV-1 replication by 50%)
[2] = Cytotoxicity assay (XTT) in TZM-GFP cells; type: cell-based; details: human, mean ± SD, read-out: CC50 (concentration of compound causing 50% cell death)
[3] = Microsomal stability, human liver microsomes; type: in vitro ADME; details: 0.5 mg/mL microsomal protein, NADPH, 37 °C; for half-life at 1 µM: human, liver microsomes, pH 7.4, 1 µM compound, read-out: Phase I metabolic stability t1/2, HLMs
[4] = Microsomal stability, mouse liver microsomes; type: in vitro ADME; details: pH 7.4, 1 µM compound, 0.5 mg/mL microsomal protein, NADPH, 37 °C, read-out: Phase I metabolic stability t1/2, MLMs
[5] = Metabolites observed in the microsomal stability assay; type: in vitro ADME; details: observed in liver microsomal stability assay
[6] = cited from earlier work
[7] = cited from earlier work; remark: listed apart in the source

COc1ccc2[nH]cc(CC(=O)N[C@@H](Cc3ccccc3)c3nccn3-c3ccc(Cl)cc3)c2c1 [Compound 23]
TSA ΔTm (change of CA crosslinked hexamer melting temperature vs DMSO) [1]: 4.0 ± 0.3 °C | EC50 (HIV-1NL4-3): 3.3 ± 0.03 µM | CC50 at 72 h [2]: 93 ± 2 µM

O=C(Cn1ncc2ccccc21)N[C@H](Cc1ccccc1)c1ncccc1-c1cccc2cn[nH]c12 [Compound 7]
TSA ΔTm (change of CA crosslinked hexamer melting temperature vs DMSO) [1]: 0 ± 0 °C | EC50 (HIV-1NL4-3): > 20 µM | CC50 at 72 h [2]: > 50 µM

CCn1cc(CC(=O)N[C@@H](Cc2ccccc2)c2ncccc2-c2ccc(Br)cc2)c2ccccc21 [Compound 19]
TSA ΔTm (change of CA crosslinked hexamer melting temperature vs DMSO) [1]: 6.3 ± 0.1 °C | EC50 (HIV-1NL4-3): 3.2 ± 0.3 µM | CC50 at 72 h [2]: 41 ± 2 µM

COc1ccc2[nH]cc(CC(=O)N[C@@H](Cc3ccccc3)c3nccn3-c3ccc(I)cc3)c2c1 [Compound 25]
TSA ΔTm (change of CA crosslinked hexamer melting temperature vs DMSO) [1]: 2.7 ± 0.1 °C | EC50 (HIV-1NL4-3): 3.3 ± 0.2 µM | CC50 at 72 h [2]: > 100 µM

O=C(Cn1cccn1)N[C@H](Cc1ccccc1)c1ncccc1-c1cccc2cn[nH]c12 [Compound 8]
TSA ΔTm (change of CA crosslinked hexamer melting temperature vs DMSO) [1]: 0.1 ± 0.1 °C | EC50 (HIV-1NL4-3): > 20 µM | CC50 at 72 h [2]: > 50 µM

Cc1[nH]c2ccccc2c1CC(=O)N[C@@H](Cc1ccccc1)c1ncccc1-c1cccc(C#N)c1 [Compound 12]
TSA ΔTm (change of CA crosslinked hexamer melting temperature vs DMSO) [1]: −0.2 ± 0.07 °C | EC50 (HIV-1NL4-3): > 20 µM | CC50 at 72 h [2]: > 50 µM

Cc1[nH]c2ccccc2c1CC(=O)N[C@@H](Cc1ccccc1)c1nccn1-c1ccccc1 [Compound 20]
TSA ΔTm (change of CA crosslinked hexamer melting temperature vs DMSO) [1]: 3.9 °C and 3.9 ± 0.4 °C | half-life at 1 µM [3]: 0.9 ± 0.004 min | half-life at 1 µM [4]: 0.7 ± 0.01 min | EC50 (HIV-1NL4-3): 3.7 ± 0.8 µM | CC50 at 72 h [2]: > 50 µM

Cc1[nH]c2ccccc2c1CC(=O)N[C@@H](Cc1ccccc1)c1ncccc1-c1ccccc1 [Compound 9]
TSA ΔTm (change of CA crosslinked hexamer melting temperature vs DMSO) [1]: 4.5 °C and 4.5 ± 0.0 °C | half-life at 1 µM [3]: 1.2 ± 0.04 min | half-life at 1 µM [4]: 1 ± 0.01 min | EC50 (HIV-1NL4-3): 2.6 ± 0.4 µM | CC50 at 72 h [2]: < 50 µM

O=C(Cc1c[nH]c2ccccc12)N[C@@H](Cc1ccccc1)C(=O)N1CCCc2ccccc21 [Compound 3]
TSA ΔTm (change of CA crosslinked hexamer melting temperature vs DMSO) [1]: 1.8 ± 1.2 °C | EC50 (HIV-1NL4-3): > 20 µM | CC50 at 72 h [2]: > 50 µM

Cc1[nH]c2ccccc2c1CC(=O)N[C@@H](Cc1ccccc1)c1nccn1-c1ccc(-c2nnn[nH]2)cc1 [Compound 22]
TSA ΔTm (change of CA crosslinked hexamer melting temperature vs DMSO) [1]: −0.3 ± 0.1 °C | half-life at 1 µM [3]: 1.3 ± 0.01 min | half-life at 1 µM [4]: 0.9 ± 0.01 min | EC50 (HIV-1NL4-3): > 20 µM | EC50 (concentration of compound inhibiting HIV-1 replication by 50%) (HIV-1NL4-3): no antiviral activity | CC50 at 72 h [2]: > 50 µM

Cc1[nH]c2ccccc2c1CC(=O)N[C@H](Cc1ccccc1)c1ncccc1-c1ccccc1 [Compound 4]
EC50 (HIV-1NL4-3): > 20 µM | EC50 (concentration of compound inhibiting HIV-1 replication by 50%) (HIV-1NL4-3): completely inactive | CC50 at 72 h [2]: < 50 µM

O=C(Cc1c[nH]c2ccccc12)N[C@@H](Cc1ccccc1)C(=O)N1CCc2ccccc21 [Compound 2]
TSA ΔTm (change of CA crosslinked hexamer melting temperature vs DMSO) [1]: −1.0 °C | EC50 (HIV-1NL4-3): > 20 µM | CC50 at 72 h [2]: > 100 µM

O=C(Cn1ncc2ccccc21)N[C@H](Cc1ccccc1)c1ncccc1-c1ccccc1 [Compound 5]
TSA ΔTm (change of CA crosslinked hexamer melting temperature vs DMSO) [1]: 0.1 ± 0.07 °C | EC50 (HIV-1NL4-3): > 20 µM | CC50 at 72 h [2]: < 50 µM

COc1ccc2[nH]cc(CC(=O)N[C@@H](Cc3ccccc3)c3ncccc3-c3ccc(Cl)cc3)c2c1 [Compound 14]
TSA ΔTm (change of CA crosslinked hexamer melting temperature vs DMSO) [1]: 7.8 ± 0.3 °C | half-life at 1 µM [3]: 1.7 ± 0.02 min | Metabolite (s) [5]: 15 | half-life at 1 µM [4]: 0.9 ± 0.004 min | EC50 (HIV-1NL4-3): 1.4 ± 0.7 µM | CC50 at 72 h [2]: 39 ± 0.2 µM

O=C(Cn1cccn1)N[C@H](Cc1ccccc1)c1ncccc1-c1ccccc1 [Compound 6]
TSA ΔTm (change of CA crosslinked hexamer melting temperature vs DMSO) [1]: 0.3 ± 0.1 °C | EC50 (HIV-1NL4-3): > 15 µM | CC50 at 72 h [2]: > 50 µM

O=C(Cc1c[nH]c2ccccc12)N[C@@H](Cc1ccccc1)c1ncccc1-c1ccc(Cl)cc1 [Compound 13]
TSA ΔTm (change of CA crosslinked hexamer melting temperature vs DMSO) [1]: 7.7 ± 0.2 °C | EC50 (HIV-1NL4-3): 0.79 ± 0.25 µM | CC50 at 72 h [2]: 22 ± 2 µM

Cc1[nH]c2ccccc2c1CC(=O)N[C@@H](Cc1ccccc1)C(=O)N1CCc2ccccc21 [Compound 1]
TSA ΔTm (change of CA crosslinked hexamer melting temperature vs DMSO) [1]: −0.5 °C | EC50 (HIV-1NL4-3): > 20 µM | CC50 at 72 h [2]: > 100 µM

Cc1[nH]c2ccccc2c1CC(=O)N[C@@H](Cc1ccccc1)C(=O)N(C)c1ccccc1 [PF74, reference compound]
TSA ΔTm (change of CA crosslinked hexamer melting temperature vs DMSO) [1]: 6.9 °C and 6.9 ± 0.5 °C | half-life (t1/2) in mouse liver microsomes (MLMs) [6]: less than 1 min | half-life (t1/2) in human liver microsomes (HLMs) [7]: less than 1 min | EC50 (HIV-1NL4-3): 0.7 ± 0.07 µM

COc1ccc2[nH]cc(CC(=O)N[C@@H](Cc3ccccc3)c3nccn3-c3ccc(Br)cc3)c2c1 [Compound 24]
TSA ΔTm (change of CA crosslinked hexamer melting temperature vs DMSO) [1]: 2.8 ± 0.3 °C | EC50 (HIV-1NL4-3): 3.5 ± 0.3 µM | CC50 at 72 h [2]: > 100 µM

CCn1cc(CC(=O)N[C@@H](Cc2ccccc2)c2ncccc2-c2ccc(Cl)cc2)c2ccccc21 [Compound 16]
TSA ΔTm (change of CA crosslinked hexamer melting temperature vs DMSO) [1]: 6.6 ± 0.2 °C | half-life at 1 µM [3]: 1.4 ± 0.02 min | Metabolite (s) [5]: 15 | half-life at 1 µM [4]: 1.4 ± 0.02 min | EC50 (HIV-1NL4-3): 2.7 ± 0.2 µM | CC50 at 72 h [2]: 41 ± 0.1 µM

O=C(Cn1cccn1)N[C@@H](Cc1ccccc1)c1ncccc1-c1ccccc1 [Compound 11, (S)-N-(2-phenyl-1-(3-phenylpyridin-2-yl)ethyl)-2-(1H-pyrazol-1-yl)acetamide]
EC50 (HIV-1NL4-3): 5.1 ± 0.7 µM | EC50 (concentration of compound inhibiting HIV-1 replication by 50%) (HIV-1NL4-3): low micromolar | CC50 at 72 h [2]: > 50 µM

COc1ccc2[nH]cc(CC(=O)N[C@@H](Cc3ccccc3)c3ncccc3-c3ccc(Br)cc3)c2c1 [Compound 18]
TSA ΔTm (change of CA crosslinked hexamer melting temperature vs DMSO) [1]: 6.3 ± 0.6 °C | EC50 (HIV-1NL4-3): 2.1 ± 0.8 µM | CC50 at 72 h [2]: 40 ± 4 µM

Cc1[nH]c2ccccc2c1CC(=O)N[C@@H](Cc1ccccc1)c1nccn1-c1ccc(C#N)cc1 [Compound 21]
TSA ΔTm (change of CA crosslinked hexamer melting temperature vs DMSO) [1]: 2.2 ± 0.0 °C | EC50 (HIV-1NL4-3): 6.6 ± 0.4 µM | CC50 at 72 h [2]: > 50 µM

O=C(Cn1ncc2ccccc21)N[C@@H](Cc1ccccc1)c1ncccc1-c1ccccc1 [Compound 10, (S)-2-(1H-indazol-1-yl)-N-(2-phenyl-1-(3-phenylpyridin-2-yl)ethyl)acetamide]
EC50 (HIV-1NL4-3): 8.8 ± 0.4 µM | EC50 (concentration of compound inhibiting HIV-1 replication by 50%) (HIV-1NL4-3): low micromolar | CC50 at 72 h [2]: < 50 µM

CCn1cc(CC(=O)N[C@@H](Cc2ccccc2)c2ncccc2-c2ccc(Cl)cc2)c2cc(OC)ccc21 [Compound 17]
TSA ΔTm (change of CA crosslinked hexamer melting temperature vs DMSO) [1]: 5.9 ± 0.2 °C | half-life at 1 µM [3]: 1.3 ± 0.01 min | Metabolite (s) [5]: 15 and 14 | half-life at 1 µM [4]: 1.3 ± 0.005 min | EC50 (HIV-1NL4-3): 3.6 ± 0.2 µM | CC50 at 72 h [2]: 48 ± 6 µM

O=C(Cc1c[nH]c2ccc(O)cc12)N[C@@H](Cc1ccccc1)c1ncccc1-c1ccc(Cl)cc1 [Compound 15]
TSA ΔTm (change of CA crosslinked hexamer melting temperature vs DMSO) [1]: 8.7 °C and 8.7 ± 0.3 °C | Phase I metabolic stability t1/2, HLMs ([3]; 1 µM compound): 27.2 ± 0.5 min | half-life at 1 µM [3]: 27 min | half-life at 1 µM [4]: 3.1 ± 0.3 min | EC50 (HIV-1NL4-3): 0.31 ± 0.07 µM | CC50 at 72 h [2]: 44 ± 1 µM
